Where two headings read alike, the source gives them in different places.
Key:
[1] = target: Beta Secretase enzyme (BACE) (Homo sapiens, UniProt P56817); experiment: In vitro enzymatic BACE FRET (fluorescence resonance energy transfer) assay; assay type: biochemical; details: average IC50, enzyme assay; read-out: BACE 1 FRET assay
Outline: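 Fluorescence read after Tris quench (pH raised to neutrality) of a one-hour BACE reaction. Buffer: acetate 0.05 M, pH 4.2, with 100 uM genapol and 10% DMSO final; started by adding 50 nM FRET peptide substrate spanning the cleavage site.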

[2] = tested on: Aβ40 in conditioned medium of cells stably expressing Amyloid Precursor Protein (APP); experiment: In vitro BACE cell-based assay (Aβ40 in conditioned medium, sandwich ELISA); details: Homo sapiens, read-out: HEK cell assay
Outline: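 Secreted Aβ40 is captured with pAb40 and detected with biotinylated 6E10, read by europium time-resolved fluorescence. IC50 comes from percent inhibition versus concentration.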

[3] = HEK293, average IC50, HEK cells

Sequence of Beta Secretase enzyme (BACE) (P56817 46-501, species assumed): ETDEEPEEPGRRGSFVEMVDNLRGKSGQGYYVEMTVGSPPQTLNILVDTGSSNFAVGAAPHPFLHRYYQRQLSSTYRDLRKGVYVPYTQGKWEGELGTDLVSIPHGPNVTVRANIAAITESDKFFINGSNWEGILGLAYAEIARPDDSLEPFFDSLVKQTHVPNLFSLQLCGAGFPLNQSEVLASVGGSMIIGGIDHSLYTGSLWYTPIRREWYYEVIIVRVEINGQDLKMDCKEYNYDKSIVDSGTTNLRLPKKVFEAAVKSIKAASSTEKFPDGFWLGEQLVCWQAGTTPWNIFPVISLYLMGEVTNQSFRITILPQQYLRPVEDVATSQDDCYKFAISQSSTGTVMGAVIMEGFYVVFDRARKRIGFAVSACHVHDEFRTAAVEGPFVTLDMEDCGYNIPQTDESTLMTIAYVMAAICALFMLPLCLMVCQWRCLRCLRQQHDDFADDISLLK

IC50 [1] [nM]	IC50 ([2]; HEK293, average IC50) [nM]	IC50 [2, 3] [nM]	Compound
5060	10000	–	COc1ccc2c(c1)[C@@]1(COC(N)=N1)c1cc(SCc3ccccc3)cnc1O2 [Example 185, (5S)-3-(benzylsulfanyl)-7-methoxyspiro[chromeno[2,3-b]pyridine-5,4′-[1,3]oxazol]-2′-amine]
1.1	–	23	CC1(C#Cc2cc3c(nc2F)Oc2ccc(-c4cncc(F)c4)cc2[C@@]32COC(N)=N2)COC1 [Example 907, (5S)-2-fluoro-7-(5-fluoro-3-pyridinyl)-3-((3-methyl-3-oxetanyl)ethynyl)spiro[chromeno[2,3-b]pyridine-5,4′-[1,3]oxazol]-2′-amine]
0.8	30.2	–	CC1(C#Cc2cc3c(cn2)Oc2ccc(-c4cccc(Cl)c4)cc2[C@@]32COC(N)=N2)COC1 [Example 157, (5S)-7-(3-chlorophenyl)-3-((3-methyl-3-oxetanyl)ethynyl)spiro[chromeno[2,3-c]pyridine-5,4′-[1,3]oxazol]-2′-amine]
22.3	565	–	Cc1nn(C)cc1-c1cccc(-c2ccc3c(c2)[C@@]2(COC(N)=N2)c2cc(C4=CCOCC4)ncc2O3)c1 [Example 255, (5S)-3-(3,6-dihydro-2H-pyran-4-yl)-7-(3-(1,3-dimethyl-1H-pyrazol-4-yl)phenyl)spiro[chromeno[2,3-c]pyridine-5,4′-[1,3]oxazol]-2′-amine]
1	6.3	–	CC(C)(C#N)COc1cc(F)c2c(c1)[C@]1(COC(N)=N1)c1cc(-c3cccnc3)ccc1O2 [Example 257, 3-(((4S)-2-amino-4′-fluoro-7′-(3-pyridinyl)spiro[1,3-oxazole-4,9′-xanthen]-2′-yl)oxy)-2,2-dimethylpropanenitrile]
0.6	–	3	COc1ccnc(F)c1-c1ccc2c(c1)[C@@]1(COC(N)=N1)c1cc(C3=CCOCC3)ncc1O2 [Example 612, (5S)-3-(3,6-dihydro-2H-pyran-4-yl)-7-(2-fluoro-4-methoxy-3-pyridinyl)spiro[chromeno[2,3-c]pyridine-5,4′-[1,3]oxazol]-2′-amine]
13.9	85.5	–	CC1(COc2cc3c(cc2F)Oc2ccc(-c4cccc(C#N)c4)cc2[C@@]32COC(N)=N2)COC1 [Example 331, 3-((4S)-2-amino-6′-fluoro-7′-((3-methyl-3-oxetanyl)methoxy)spiro[1,3-oxazole-4,9′-xanthen]-2′-yl)benzonitrile]
0.7	5	–	CC1(C)CC(c2cc3c(c(F)n2)Oc2ccc(-c4cccnc4F)cc2[C@@]32CSC(N)=N2)=CCO1 [Example 1034, (5S)-3-(2,2-dimethyl-3,6-dihydro-2H-pyran-4-yl)-1-fluoro-7-(2-fluoro-3-pyridinyl)spiro[chromeno[2,3-c]pyridine-5,4′-[1,3]thiazol]-2′-amine]
622	–	2560	CC(C)(C)/C=C/c1ccc2c(c1)[C@]1(COC(N)=N1)c1cc(Cl)ncc1O2 [Example 383, (5R)-3-chloro-7-((1E)-3,3-dimethyl-1-buten-1-yl)spiro[chromeno[2,3-c]pyridine-5,4′-[1,3]oxazol]-2′-amine]
1.7	–	16.4	NC1=N[C@]2(CS1)c1cc(-c3cccnc3F)ccc1Oc1ncc(C3=CCOCC3)cc12 [Example 577, (5R)-3-(3,6-dihydro-2H-pyran-4-yl)-7-(2-fluoro-3-pyridinyl)spiro[chromeno[2,3-b]pyridine-5,4′-[1,3]thiazol]-2′-amine]
2.7	21.6	–	COc1ncc(-c2cc(F)c3c(c2)[C@]2(COC(N)=N2)c2cc(-c4cccnc4F)ccc2O3)cn1 [Example 213, (4S)-4′-fluoro-7′-(2-fluoro-3-pyridinyl)-2′-(2-methoxy-5-pyrimidinyl)spiro[1,3-oxazole-4,9′-xanthen]-2-amine]
0.4	74	–	NC1=N[C@@]2(CO1)c1cc(-c3cccnc3F)ccc1Oc1c2cc(C#Cc2cccnc2)nc1F [Example 748, (5S)-1-fluoro-7-(2-fluoro-3-pyridinyl)-3-(3-pyridinylethynyl)spiro[chromeno[2,3-c]pyridine-5,4′-[1,3]oxazol]-2′-amine]
5.4	33.6	–	NC1=N[C@@]2(CO1)c1cc(-c3cnccn3)ccc1Oc1c(F)cc(OCC3CCOCC3)cc12 [Example 270, (4S)-4′-fluoro-7′-(2-pyrazinyl)-2′-(tetrahydro-2H-pyran-4-ylmethoxy)spiro[1,3-oxazole-4,9′-xanthen]-2-amine]
17.3	108	–	COc1ncccc1-c1ccc2c(c1)[C@@]1(COC(N)=N1)c1cc(C3=CCOCC3)ncc1O2 [Example 240, (5S)-3-(3,6-dihydro-2H-pyran-4-yl)-7-(2-methoxy-3-pyridinyl)spiro[chromeno[2,3-c]pyridine-5,4′-[1,3]oxazol]-2′-amine]
36	320	–	Cc1ccc(-c2ccc3c(c2)[C@@]2(COC(N)=N2)c2cc(C4=CCOCC4)ncc2O3)c(F)n1 [Example 253, (5S)-3-(3,6-dihydro-2H-pyran-4-yl)-7-(2-fluoro-6-methyl-3-pyridinyl)spiro[chromeno[2,3-c]pyridine-5,4′-[1,3]oxazol]-2′-amine]
2.8	–	17	NC1=N[C@@]2(CS1)c1cc(-c3cccnc3)ccc1Oc1ncc(N3CCOCC3)cc12 [Example 602, (5S)-3-(4-morpholinyl)-7-(3-pyridinyl)spiro[chromeno[2,3-b]pyridine-5,4′-[1,3]thiazol]-2′-amine]
0.5	–	8	CC1(COc2cc(F)c3c(c2)[C@]2(CSC(N)=N2)c2cc(-c4cncnc4)c(F)cc2O3)COC1 [Example 875, (4S)-3′,5′-difluoro-7′-((3-methyl-3-oxetanyl)methoxy)-2′-(5-pyrimidinyl)spiro[1,3-thiazole-4,9′-xanthen]-2-amine]
2.5	14	–	Cc1cc(-c2ccc3c(c2)[C@@]2(COC(N)=N2)c2cc(C4=CCOCC4)ncc2O3)cnc1F [Example 228, (5S)-3-(3,6-dihydro-2H-pyran-4-yl)-7-(6-fluoro-5-methyl-3-pyridinyl)spiro[chromeno[2,3-c]pyridine-5,4′-[1,3]oxazol]-2′-amine]
59.7	1850	–	NC1=N[C@]2(CO1)c1cc(-c3cccnc3)ccc1Oc1c2cc(-c2ccnc(F)c2)c(F)c1F [Example 1012, (4R)-3′,4′-difluoro-2′-(2-fluoro-4-pyridinyl)-7′-(3-pyridinyl)spiro[1,3-oxazole-4,9′-xanthen]-2-amine]
0.3	–	2	CC#Cc1cncc(-c2ccc3c(c2)[C@@]2(COC(N)=N2)c2cc(C4=CCCOC4)cnc2O3)c1 [Example 950, (5S)-3-(5,6-dihydro-2H-pyran-3-yl)-7-(5-(1-propyn-1-yl)-3-pyridinyl)spiro[chromeno[2,3-b]pyridine-5,4′-[1,3]oxazol]-2′-amine]

Compound	IC50 [1] [nM]	IC50 ([2]; HEK293, average IC50) [nM]	IC50 [2, 3] [nM]
NC1=N[C@@]2(CO1)c1cc(-c3c(F)ccnc3F)ccc1Oc1cnc([C@H]3CCCOC3)cc12 [Example 913, (5S)-7-(2,4-difluoro-3-pyridinyl)-3-((3R)-tetrahydro-2H-pyran-3-yl)spiro[chromeno[2,3-c]pyridine-5,4′-[1,3]oxazol]-2′-amine]	16.1	–	211
NC1=N[C@]2(CO1)c1cc(I)ccc1Oc1ncc(Br)cc12 [Example 1017, (5R)-3-bromo-7-iodospiro[chromeno[2,3-b]pyridine-5,4′-[1,3]oxazol]-2′-amine]	27600	886	–
